In ChEMBL document CHEMBL1153765, “Bioactive 5,6-dihydro-alpha-pyrone derivatives from Hyptis brevipes” (2009):
Active and inactive are the calls of the source. No cut-off for these calls is given here.

Experiments:
MCF7 = experiment: Cytotoxicity against human MCF7 cells; type: functional; details: read-out: ED50 (the source's name)
Lu1 = experiment: Cytotoxicity against human Lu1 cells; type: functional, cell-based
HL-60 = experiment: Inhibition of chymotrypsin-like activity of proteasome in human HL60 cells assessed as free AMC level after 10 mins; type: subcellular
[1] = target: T1, Nuclear factor NF-kappa-B p105 subunit (Homo sapiens) (UniProt P19838); experiment: Inhibition of NF kappaB p50 subunit signaling pathway in human HeLa cells by biotinylated-ELISA; type: cell-based
T1 sequence (whole entry): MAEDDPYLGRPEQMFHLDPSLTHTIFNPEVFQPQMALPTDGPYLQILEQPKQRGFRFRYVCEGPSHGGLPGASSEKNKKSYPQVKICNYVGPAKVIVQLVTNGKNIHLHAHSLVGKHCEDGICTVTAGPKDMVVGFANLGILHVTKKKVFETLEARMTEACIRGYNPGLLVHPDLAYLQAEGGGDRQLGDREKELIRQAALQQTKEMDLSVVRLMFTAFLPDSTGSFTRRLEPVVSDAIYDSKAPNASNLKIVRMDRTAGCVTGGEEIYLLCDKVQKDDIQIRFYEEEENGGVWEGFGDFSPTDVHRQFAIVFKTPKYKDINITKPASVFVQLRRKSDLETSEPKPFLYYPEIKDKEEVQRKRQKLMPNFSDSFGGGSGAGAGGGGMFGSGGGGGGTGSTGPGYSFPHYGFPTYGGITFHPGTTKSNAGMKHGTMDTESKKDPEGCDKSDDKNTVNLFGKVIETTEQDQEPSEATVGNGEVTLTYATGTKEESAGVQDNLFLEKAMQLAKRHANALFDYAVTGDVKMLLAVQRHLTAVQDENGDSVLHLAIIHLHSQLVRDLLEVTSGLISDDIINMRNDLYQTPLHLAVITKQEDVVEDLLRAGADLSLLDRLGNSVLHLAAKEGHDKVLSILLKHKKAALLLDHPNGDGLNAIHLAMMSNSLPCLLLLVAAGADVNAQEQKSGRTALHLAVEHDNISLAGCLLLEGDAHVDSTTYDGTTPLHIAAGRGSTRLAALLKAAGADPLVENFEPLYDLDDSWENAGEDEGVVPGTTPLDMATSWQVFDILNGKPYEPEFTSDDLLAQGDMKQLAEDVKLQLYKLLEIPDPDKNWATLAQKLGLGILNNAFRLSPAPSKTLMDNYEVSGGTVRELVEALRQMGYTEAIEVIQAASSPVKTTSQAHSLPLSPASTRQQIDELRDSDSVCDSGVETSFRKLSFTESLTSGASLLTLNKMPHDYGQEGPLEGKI

HT-29 [2] = experiment: Cytotoxicity against human HT-29 cells; type: functional; details: read-out: ED50 (the source's name)
HT-29 [3] = experiment: Induction of apoptosis in human HT-29 cells assessed as change in mitochondrial transmembrane potential after 2 hrs by JC1 staining based fluorescence assay; type: functional; details: HT-29, 2 h, read-out: ED50 (the source's name)

Row | Structure (SMILES) | EC50 (MCF7) | Activity (Lu1) | ED50 (HL-60) | ED50 [1] | EC50 (HT-29 [2]) | EC50 (HT-29 [3])
1 | CC(OC(=O)/C=C/c1ccc(O)c(O)c1)C(=O)[C@H]1C[C@@H]1[C@H](O)[C@H]1CC=CC(=O)O1 (stereo not given in full) [BREVIPOLIDE C] | > 10 µM | inactive | 38 µM | > 50 µM | – | –
2 | CC(=O)O[C@@H]([C@H]1C[C@@H]1C(=O)C(C)OC(=O)/C=C\c1ccc(O)cc1)[C@H]1CC=CC(=O)O1 (stereo not given in full) [BREVIPOLIDE B] | 6.1 µM | inactive | – | > 50 µM | 6.1 µM | –
3 | CC(OC(=O)/C=C\c1ccc(O)c(O)c1)C(=O)[C@H]1C[C@@H]1[C@H](O)[C@H]1CC=CC(=O)O1 (stereo not given in full) [BREVIPOLIDE D] | > 10 µM | inactive | 44.5 µM | > 50 µM | – | –
4 | CC(OC(=O)/C=C/c1ccc(O)cc1)C(=O)[C@H]1C[C@@H]1[C@H](O)[C@H]1CC=CC(=O)O1 (stereo not given in full) | 3.6 µM | inactive | – | 15.3 µM | – | 0.075 µM
5 | CC(OC(=O)/C=C\c1ccc(O)cc1)C(=O)[C@H]1C[C@@H]1[C@H](O)[C@H]1CC=CC(=O)O1 (stereo not given in full) [BREVIPOLIDE F] | 6.7 µM | inactive | – | > 50 µM | – | –
6 | CC(=O)O[C@@H]([C@H]1C[C@@H]1C(=O)C(C)OC(=O)/C=C/c1ccc(O)cc1)[C@H]1CC=CC(=O)O1 (stereo not given in full) [BREVIPOLIDE A] | > 10 µM | inactive | – | > 50 µM | 5.8 µM | –
7 | COc1ccc([C@@]23Oc4cc(OC)cc(OC)c4[C@]2(O)[C@H](O)[C@H](C(=O)N(C)C)[C@H]3c2ccccc2)cc1 | – | – | – | 2 µM | – | –
8 | CC(=O)O[C@@H]([C@H]1C[C@@H]1C(=O)C(C)OC(=O)/C=C/c1ccc(O)c(O)c1)[C@H]1CC=CC(=O)O1 (stereo not given in full) [BREVIPOLIDE E] | > 10 µM | inactive | – | > 50 µM | – | –
9 | COc1ccc(-c2oc3cc(OC)c(O)c(O)c3c(=O)c2OC)cc1O | – | inactive | 17 µM | > 50 µM | – | –
